# Data from patent US6914045B2, “Glycopeptide antibiotics” (Wyeth Holdings Corporation, priority 2001, dated 2005).
# How the values were obtained:
# Assay in all cases: in vitro antibacterial evaluation, MIC by broth dilution
# Format in all cases: cell-based
# Enterococcus sp. = conditions: broth dilution, 18 hours at 35° C.
# Description: (§1) Methods for in vitro Antibacterial Evaluation (Table 1)
# (§2) The minimum inhibitory concentration (MIC), the lowest concentration of the antibiotic which inhibits growth of the test organism, is determined by the broth dilution method using Muller-Hinton II […] (Baltimore Biological Laboratories) following the recommendations of the National Committee for Clinical Laboratory Standards [Methods for dilution antimicrobial susceptibility tests for bacteria that grow aerobically, approved standard M7-A2, National Committee for Clinical Laboratory Standards, Villanova, Pa.].
# (§3) An inoculum level of 5×10^5 CFU/mL, and a range of antibiotic concentrations (64-0.06 μg/mL) is used. […] The test organisms include a spectrum of Gram-positive bacteria comprised of Staphylococcus sp., Streptococcus sp. and Enterococcus sp. These organisms include recent clinical isolates that are resistant to methicillin, penicillin and/or vancomycin.
# Staphylococcus sp. = conditions: broth dilution, 18 hours at 35° C.
# Description: as §1, §2, §3
# Streptococcus sp. = conditions: broth dilution, 18 hours at 35° C.
# Description: as §1, §2, §3
# Escherichia coli = conditions: 18 hours at 35° C.
smiles,measurement,setting,value
CC(c1ccccc1)C1NC(=O)CNC(=O)C(CO)NC(=O)C(C(O)C2CN(c3nc4ccccc4o3)C(=N)N2C2OC(CO)C(O)C(O)C2O)NC(=O)C(C(O)C2CNC(=Nc3nc4ccccc4o3)N2)NC(=O)C(Cc2ccc(OC3OC(CO)C(OC4OC5COC6(OC5C(O)C4O)C4CC5CC(C4)CC6C5)C(O)C3O)cc2)NC1=O (stereo not drawn) [Example 227],MIC Enterococcus avium (GC 4558),Enterococcus sp.,8 µg/mL
same,MIC Enterococcus faecalis (ATCC 29212),Enterococcus sp.,64 µg/mL
same,MIC Enterococcus faecalis (GC 2242),Enterococcus sp.,64 µg/mL
same,MIC Enterococcus faecalis (GC 2691),Enterococcus sp.,64 µg/mL
same,MIC Enterococcus faecalis (GC 3059),Enterococcus sp.,128 µg/mL
same,MIC Enterococcus faecalis (GC 4552),Enterococcus sp.,64 µg/mL
same,MIC Enterococcus faecalis (GC 4553),Enterococcus sp.,8 µg/mL
same,MIC Enterococcus faecalis (GC 4554),Enterococcus sp.,128 µg/mL
same,MIC Enterococcus faecalis (GC 6189),Enterococcus sp.,64 µg/mL
same,MIC Enterococcus faecium (GC 2243),Enterococcus sp.,32 µg/mL
same,MIC Enterococcus faecium (GC 4556),Enterococcus sp.,64 µg/mL
same,MIC Enterococcus faecium (GC 4557),Enterococcus sp.,8 µg/mL
same,MIC Enterococcus faecalis (ATCC 29212),"Enterococcus sp.; inoculum 5×10^5 CFU/mL, strain ATCC 29212",64 µg/mL
same,MIC Enterococcus faecalis (GC 2242),"Enterococcus sp.; inoculum 5×10^5 CFU/mL, strain GC 2242",64 µg/mL
same,MIC Enterococcus faecium (GC 2243),"Enterococcus sp.; inoculum 5×10^5 CFU/mL, strain GC 2243",32 µg/mL
same,MIC Enterococcus faecalis (GC 2691),"Enterococcus sp.; inoculum 5×10^5 CFU/mL, strain GC 2691",64 µg/mL
same,MIC Enterococcus faecalis (GC 3059),"Enterococcus sp.; inoculum 5×10^5 CFU/mL, strain GC 3059",128 µg/mL
same,MIC Enterococcus faecalis (GC 4552),"Enterococcus sp.; inoculum 5×10^5 CFU/mL, strain GC 4552",64 µg/mL
same,MIC Enterococcus faecalis (GC 4553),"Enterococcus sp.; inoculum 5×10^5 CFU/mL, strain GC 4553",8 µg/mL
same,MIC Enterococcus faecalis (GC 4554),"Enterococcus sp.; inoculum 5×10^5 CFU/mL, strain GC 4554",128 µg/mL
same,MIC Enterococcus faecium (GC 4556),"Enterococcus sp.; inoculum 5×10^5 CFU/mL, strain GC 4556",64 µg/mL
same,MIC Enterococcus faecium (GC 4557),"Enterococcus sp.; inoculum 5×10^5 CFU/mL, strain GC 4557",8 µg/mL
same,MIC Enterococcus avium (GC 4558),"Enterococcus sp.; inoculum 5×10^5 CFU/mL, strain GC 4558",8 µg/mL
same,MIC Enterococcus faecalis (GC 6189),"Enterococcus sp.; inoculum 5×10^5 CFU/mL, strain GC 6189",64 µg/mL
same,MIC Coagulase Negative Staphylococcus (GC 4547),Staphylococcus sp.,32 µg/mL
same,MIC Coagulase Negative Staphylococcus (GC 4548),Staphylococcus sp.,4 µg/mL
same,MIC Coagulase Negative Staphylococcus (GC 4549),Staphylococcus sp.,32 µg/mL
same,MIC Coagulase Negative Staphylococcus (GC 4551),Staphylococcus sp.,8 µg/mL
same,MIC Staphylococcus aureus-SMITH (GC 4543),Staphylococcus sp.,128 µg/mL
same,MIC Staphylococcus haemolyticus (GC 4546),Staphylococcus sp.,64 µg/mL
same,MIC Staphylococcus aureus-SMITH (GC 4543),Staphylococcus sp.; strain GC 4543,128 µg/mL
same,MIC Staphylococcus haemolyticus (GC 4546),Staphylococcus sp.; strain GC 4546,64 µg/mL
same,MIC Coagulase Negative Staphylococcus (GC 4547),Staphylococcus sp.; strain GC 4547,32 µg/mL
same,MIC Coagulase Negative Staphylococcus (GC 4548),Staphylococcus sp.; strain GC 4548,4 µg/mL
same,MIC Coagulase Negative Staphylococcus (GC 4549),Staphylococcus sp.; strain GC 4549,32 µg/mL
same,MIC Coagulase Negative Staphylococcus (GC 4551),Staphylococcus sp.; strain GC 4551,8 µg/mL
same,MIC Staphylococcus aureus (ATCC 29213),Staphylococcus sp.; strain ATCC 29213,128 µg/mL
same,MIC Staphylococcus aureus (GC 1131),Staphylococcus sp.; strain GC 1131,128 µg/mL
same,MIC Staphylococcus aureus (GC 3051),Staphylococcus sp.; strain GC 3051,128 µg/mL
same,MIC Staphylococcus aureus (GC 3053),Staphylococcus sp.; strain GC 3053,>128 µg/mL
same,MIC Staphylococcus aureus (GC 4541),Staphylococcus sp.; strain GC 4541,128 µg/mL
same,MIC Staphylococcus aureus (GC 4542),Staphylococcus sp.; strain GC 4542,128 µg/mL
same,MIC Staphylococcus aureus (GC 4544),Staphylococcus sp.; strain GC 4544,128 µg/mL
same,MIC Staphylococcus aureus (GC 4545),Staphylococcus sp.; strain GC 4545,128 µg/mL
same,MIC Streptococcus agalactiae (GC 4564),Streptococcus sp.,4 µg/mL
same,MIC Streptococcus pneumoniae (ATCC 6301),Streptococcus sp.,32 µg/mL
same,MIC Streptococcus pneumoniae (GC 1894),Streptococcus sp.,32 µg/mL
same,MIC Streptococcus pneumoniae (GC 4565),Streptococcus sp.,64 µg/mL
same,MIC Streptococcus pyogenes (GC 4563),Streptococcus sp.,32 µg/mL
same,MIC Streptococcus pneumoniae (ATCC 6301),"Streptococcus sp.; inoculum 5×10^5 CFU/mL, strain ATCC 6301",32 µg/mL
same,MIC Streptococcus pneumoniae (GC 1894),"Streptococcus sp.; inoculum 5×10^5 CFU/mL, strain GC 1894",32 µg/mL
same,MIC Streptococcus pyogenes (GC 4563),"Streptococcus sp.; inoculum 5×10^5 CFU/mL, strain GC 4563",32 µg/mL
same,MIC Streptococcus agalactiae (GC 4564),"Streptococcus sp.; inoculum 5×10^5 CFU/mL, strain GC 4564",64 µg/mL
same,MIC Streptococcus pneumoniae (GC 4565),"Streptococcus sp.; inoculum 5×10^5 CFU/mL, strain GC 4565",64 µg/mL
same,MIC Escherichia coli (ATCC 25922),Escherichia coli,>128 µg/mL
same,MIC Escherichia coli (GC 4559),Escherichia coli,>128 µg/mL
same,MIC Escherichia coli (GC 4560),Escherichia coli,8 µg/mL
